Reference: patent publication US10004701B2, “Methods and compositions for treating infection” (UNIVERSITY OF ROCHESTER, priority 2012, dated 2018)
Structures can show the parent of a compound that is named as a salt. Where two headings read alike, the source gives them in different places.

How the values were obtained:
Test in all cases: AK assay 384-well format, Prestwick library screening
[1] = tested on: E. faecium; type: cell-based, Enterococcus faecium; conditions: Enterococcus faecium, 3 h, 50 μM final drug concentration
[2] = tested on: S. aureus strain USA300-0114; type: cell-based, Staphylococcus aureus; conditions: Staphylococcus aureus, USA300, 3 h, 50 μM final drug concentration
[3] = tested on: K. pneumoniae; type: cell-based, Klebsiella pneumoniae; conditions: Klebsiella pneumoniae, 3 h, 50 μM final drug concentration
[4] = tested on: A. baumannii strain 98-37-09; type: cell-based, Acinetobacter baumannii; conditions: Acinetobacter baumannii, 983709, 3 h, 50 μM final drug concentration
[5] = tested on: P. aeruginosa; type: cell-based, Pseudomonas aeruginosa; conditions: Pseudomonas aeruginosa, 3 h, 50 μM final drug concentration
[6] = tested on: E. cloacae; type: cell-based, Enterobacter cloacae; conditions: Enterobacter cloacae, 3 h, 50 μM final drug concentration
[7] = tested on: E. coli; type: cell-based, Escherichia coli; conditions: Escherichia coli, 3 h, 50 μM final drug concentration
[8] = planktonic E. faecium, 384-well, cutoff for positive-scoring molecules 3-fold increase, read-out: AK-based Prestwick Library Screening Results: E. faecium (increase in extracellular AK activity)
[9] = planktonic S. aureus, 384-well, cutoff for positive-scoring molecules 3-fold increase, read-out: AK-based Prestwick Library Screening Results: S. aureus (increase in extracellular AK activity)
[10] = planktonic K. pneumoniae, 384-well, cutoff for positive-scoring molecules 3-fold increase, read-out: AK-based Prestwick Library Screening Results: K. pneumoniae (increase in extracellular AK activity)
[11] = planktonic A. baumannii, 384-well, cutoff for positive-scoring molecules 3-fold increase, read-out: AK-based Prestwick Library Screening Results: A. baumannii (increase in extracellular AK activity)
[12] = planktonic P. aeruginosa, 384-well, cutoff for positive-scoring molecules 3-fold increase, read-out: AK-based Prestwick Library Screening Results: P. aeruginosa (increase in extracellular AK activity)
[13] = planktonic E. cloacae, 384-well, cutoff for positive-scoring molecules 3-fold increase, read-out: AK-based Prestwick Library Screening Results: E. cloacae (increase in extracellular AK activity)
[14] = planktonic E. coli, 384-well, cutoff for positive-scoring molecules 3-fold increase, read-out: AK-based Prestwick Library Screening Results: E. coli (increase in extracellular AK activity)
[15] = planktonic, cutoff for positive 3-fold increase, read-out: AK-based Prestwick Library Screening Results, E. faecium (fold increase in extracellular AK activity)
[16] = planktonic, cutoff for positive 3-fold increase, read-out: AK-based Prestwick Library Screening Results, S. aureus (fold increase in extracellular AK activity)
[17] = planktonic, cutoff for positive 3-fold increase, read-out: AK-based Prestwick Library Screening Results, K. pneumoniae (fold increase in extracellular AK activity)
[18] = planktonic, cutoff for positive 3-fold increase, read-out: AK-based Prestwick Library Screening Results, A. baumannii (fold increase in extracellular AK activity)
[19] = planktonic, cutoff for positive 3-fold increase, read-out: AK-based Prestwick Library Screening Results, P. aeruginosa (fold increase in extracellular AK activity)
[20] = planktonic, cutoff for positive 3-fold increase, read-out: AK-based Prestwick Library Screening Results, E. cloacae (fold increase in extracellular AK activity)
[21] = planktonic, cutoff for positive 3-fold increase, read-out: AK-based Prestwick Library Screening Results, E. coli (fold increase in extracellular AK activity)

SMILES: O=C1C(CC[S+]([O-])c2ccccc2)C(=O)N(c2ccccc2)N1c1ccccc1 (stereo not shown) [Sulfinpyrazone]
- fold induction at 50 µM [1, 8]: 1.1
- fold induction at 50 µM [2, 9]: 3.5
- fold induction at 50 µM [3, 10]: 1
- fold induction at 50 µM [4, 11]: 1.2
- fold induction at 50 µM [5, 12]: 1
- fold induction at 50 µM [6, 13]: 1.2
- fold induction at 50 µM [7, 14]: 1.3

SMILES: NS(=O)(=O)c1cc2c(cc1C(F)(F)F)NC(Cc1ccccc1)NS2(=O)=O (stereo not shown) [Bendroflumethiazide]
- fold induction at 50 µM ([1]; cutoff for positive-scoring molecules 3-fold increase, read-out: AK-based Prestwick Library Screening Results, E. faecium (fold increase in extracellular AK activity)): 1.2
- fold induction at 50 µM ([2]; cutoff for positive-scoring molecules 3-fold increase, read-out: AK-based Prestwick Library Screening Results, S. aureus (fold increase in extracellular AK activity)): 1.3
- fold induction at 50 µM ([3]; cutoff for positive-scoring molecules 3-fold increase, read-out: AK-based Prestwick Library Screening Results, K. pneumoniae (fold increase in extracellular AK activity)): 1.1
- fold induction at 50 µM ([4]; cutoff for positive-scoring molecules 3-fold increase, read-out: AK-based Prestwick Library Screening Results, A. baumannii (fold increase in extracellular AK activity)): 1.3
- fold induction at 50 µM ([5]; cutoff for positive-scoring molecules 3-fold increase, read-out: AK-based Prestwick Library Screening Results, P. aeruginosa (fold increase in extracellular AK activity)): 1.1
- fold induction at 50 µM ([6]; cutoff for positive-scoring molecules 3-fold increase, read-out: AK-based Prestwick Library Screening Results, E. cloacae (fold increase in extracellular AK activity)): 1.5
- fold induction at 50 µM ([7]; cutoff for positive-scoring molecules 3-fold increase, read-out: AK-based Prestwick Library Screening Results, E. coli (fold increase in extracellular AK activity)): 1.3

SMILES: COc1ccc(Cl)cc1C(=O)NCCc1ccc(S(=O)(=O)NC(=O)NC2CCCCC2)cc1 [Glibenclamide]
- fold induction at 50 µM [1, 8]: 1
- fold induction at 50 µM [2, 9]: 0.9
- fold induction at 50 µM [3, 10]: 1.1
- fold induction at 50 µM [4, 11]: 1.3
- fold induction at 50 µM [5, 12]: 1.2
- fold induction at 50 µM [6, 13]: 1.4
- fold induction at 50 µM [7, 14]: 1.2

SMILES: CC(=O)O[C@H]1C[C@@]2(C)[C@@H](C[C@@H](O)[C@H]3[C@@]4(C)CC[C@@H](O)[C@@H](C)[C@@H]4CC[C@@]32C)/C1=C(\CCC=C(C)C)C(=O)O [Fusidic acid sodium salt]
- fold induction at 50 µM [1, 15]: 1.1
- fold induction at 50 µM [2, 16]: 4.2
- fold induction at 50 µM [3, 17]: 1.1
- fold induction at 50 µM [4, 18]: 1.3
- fold induction at 50 µM [5, 19]: 1.1
- fold induction at 50 µM [6, 20]: 1.4
- fold induction at 50 µM [7, 21]: 1.1

SMILES: Cc1ccccc1OCC(O)CO (stereo not shown) [Mephenesin]
- fold induction at 50 µM ([1]; 384-well format, cutoff for positive-scoring molecules 3-fold increase, read-out: AK-based Prestwick Library Screening Results, E. faecium (increase in extracellular AK activity)): 1
- fold induction at 50 µM ([2]; 384-well format, cutoff for positive-scoring molecules 3-fold increase, read-out: AK-based Prestwick Library Screening Results, S. aureus (increase in extracellular AK activity)): 0.8
- fold induction at 50 µM ([3]; 384-well format, cutoff for positive-scoring molecules 3-fold increase, read-out: AK-based Prestwick Library Screening Results, K. pneumoniae (increase in extracellular AK activity)): 0.7
- fold induction at 50 µM ([4]; 384-well format, cutoff for positive-scoring molecules 3-fold increase, read-out: AK-based Prestwick Library Screening Results, A. baumannii (increase in extracellular AK activity)): 0.8
- fold induction at 50 µM ([5]; 384-well format, cutoff for positive-scoring molecules 3-fold increase, read-out: AK-based Prestwick Library Screening Results, P. aeruginosa (increase in extracellular AK activity)): 0.6
- fold induction at 50 µM ([6]; 384-well format, cutoff for positive-scoring molecules 3-fold increase, read-out: AK-based Prestwick Library Screening Results, E. cloacae (increase in extracellular AK activity)): 0.8
- fold induction at 50 µM ([7]; 384-well format, cutoff for positive-scoring molecules 3-fold increase, read-out: AK-based Prestwick Library Screening Results, E. coli (increase in extracellular AK activity)): 0.7

SMILES: CCN(CC)CCNC(=O)COc1ccc(OC)cc1 [Mefexamide hydrochloride]
- fold induction at 50 µM [1, 8]: 1
- fold induction at 50 µM [2, 9]: 0.9
- fold induction at 50 µM [3, 10]: 0.9
- fold induction at 50 µM [4, 11]: 1
- fold induction at 50 µM [5, 12]: 1.1
- fold induction at 50 µM [6, 13]: 1.3
- fold induction at 50 µM [7, 14]: 1.2

SMILES: CN(C)CCC(c1ccc(Br)cc1)c1ccccn1 (stereo not shown) [Brompheniramine maleate]
- fold induction at 50 µM [1, 15]: 1
- fold induction at 50 µM [2, 16]: 1.1
- fold induction at 50 µM [3, 17]: 1.1
- fold induction at 50 µM [4, 18]: 1.2
- fold induction at 50 µM [5, 19]: 1.1
- fold induction at 50 µM [6, 20]: 2
- fold induction at 50 µM [7, 21]: 1.4

SMILES: CC[C@@H](C(=O)[C@@H](C)[C@@H](O)[C@H](C)CCc1ccc(C)c(O)c1C(=O)O)[C@H]1O[C@](CC)([C@H]2CC[C@](O)(CC)[C@H](C)O2)C[C@@H]1C [Lasalocid sodium salt]
- fold induction at 50 µM ([1]; planktonic, cutoff for positive-scoring molecules 3-fold increase, read-out: AK-based Prestwick Library Screening Results, E. faecium (fold increase in extracellular AK activity)): 0.9
- fold induction at 50 µM ([2]; planktonic, cutoff for positive-scoring molecules 3-fold increase, read-out: AK-based Prestwick Library Screening Results, S. aureus (fold increase in extracellular AK activity)): 3.7
- fold induction at 50 µM ([3]; planktonic, cutoff for positive-scoring molecules 3-fold increase, read-out: AK-based Prestwick Library Screening Results, K. pneumoniae (fold increase in extracellular AK activity)): 0.7
- fold induction at 50 µM ([4]; planktonic, cutoff for positive-scoring molecules 3-fold increase, read-out: AK-based Prestwick Library Screening Results, A. baumannii (fold increase in extracellular AK activity)): 2.6
- fold induction at 50 µM ([5]; planktonic, cutoff for positive-scoring molecules 3-fold increase, read-out: AK-based Prestwick Library Screening Results, P. aeruginosa (fold increase in extracellular AK activity)): 0.7
- fold induction at 50 µM ([6]; planktonic, cutoff for positive-scoring molecules 3-fold increase, read-out: AK-based Prestwick Library Screening Results, E. cloacae (fold increase in extracellular AK activity)): 1
- fold induction at 50 µM ([7]; planktonic, cutoff for positive-scoring molecules 3-fold increase, read-out: AK-based Prestwick Library Screening Results, E. coli (fold increase in extracellular AK activity)): 1

SMILES: CCN(CC)Cc1cc(Nc2ccnc3cc(Cl)ccc23)ccc1O [Amodiaquin dihydrochloride dihydrate]
- fold induction at 50 µM [1, 8]: 1.1
- fold induction at 50 µM [2, 9]: 1.3
- fold induction at 50 µM [3, 10]: 0.9
- fold induction at 50 µM [4, 11]: 1.5
- fold induction at 50 µM [5, 12]: 1.2
- fold induction at 50 µM [6, 13]: 1.4
- fold induction at 50 µM [7, 14]: 1.2

SMILES: COc1ccccc1OCC(O)CN1CCN(CC(=O)Nc2c(C)cccc2C)CC1 (stereo not shown) [Ranolazine]
- fold induction at 50 µM ([1]; planktonic E. faecium, positive cutoff 3-fold increase, read-out: AK-based Prestwick library screening result, E. faecium (fold increase in extracellular AK activity)): 0.9
- fold induction at 50 µM ([2]; planktonic S. aureus, positive cutoff 3-fold increase, read-out: AK-based Prestwick library screening result, S. aureus (fold increase in extracellular AK activity)): 1
- fold induction at 50 µM ([3]; planktonic K. pneumoniae, positive cutoff 3-fold increase, read-out: AK-based Prestwick library screening result, K. pneumoniae (fold increase in extracellular AK activity)): 0.9
- fold induction at 50 µM ([4]; planktonic A. baumannii, positive cutoff 3-fold increase, read-out: AK-based Prestwick library screening result, A. baumannii (fold increase in extracellular AK activity)): 1.2
- fold induction at 50 µM ([5]; planktonic P. aeruginosa, positive cutoff 3-fold increase, read-out: AK-based Prestwick library screening result, P. aeruginosa (fold increase in extracellular AK activity)): 1
- fold induction at 50 µM ([6]; planktonic E. cloacae, positive cutoff 3-fold increase, read-out: AK-based Prestwick library screening result, E. cloacae (fold increase in extracellular AK activity)): 1.4
- fold induction at 50 µM ([7]; planktonic E. coli, positive cutoff 3-fold increase, read-out: AK-based Prestwick library screening result, E. coli (fold increase in extracellular AK activity)): 1.2
